MIC data for one compound are collected here from US5663331A, “Cephalosporin compounds” (Il-Dong Pharm. Co., Ltd., priority 1992, dated 1997).

Common to all, as to assay type: cell-based
Test [1] relates to Bacillus subtilis ATCC 6633. Briefly: MIC, two-fold dilution method, Bacillus subtilis ATCC 6633. The settings on record: ATCC6633, Muller Hinton Broth, 10^6 CFU per ml, 37° C., 18 to 20 hours, read-out: Antibacterial Activity (MIC). The essentials:
(§1)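 Two-fold serial compound dilutions in Mueller Hinton broth were inoculated with 10^6 CFU/ml of each standard strain. Plates were incubated at 37 °C for 18–20 h to give the minimal inhibitory concentration.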

Test [2] has as its system Staphylococcus aureus ATCC 65389. Briefly: MIC, two-fold dilution method, Staphylococcus aureus ATCC 65389. The settings on record: ATCC65389, Muller Hinton Broth, 10^6 CFU per ml, 37° C., 18 to 20 hours, read-out: Antibacterial Activity (MIC). The method, boiled down: as §1
Test [3] concerns Staphylococcus epidermidis ATCC 12228. Briefly: MIC, two-fold dilution method, Staphylococcus epidermidis ATCC 12228. The settings on record: ATCC12228, Muller Hinton Broth, 10^6 CFU per ml, 37° C., 18 to 20 hours, read-out: Antibacterial Activity (MIC). The method, boiled down:
as §1

Test [4] deals with Streptococcus faecalis ATCC 10541. Kind of test: MIC, two-fold dilution method, Streptococcus faecalis ATCC 10541. The settings on record: Enterococcus faecalis, ATCC10541, Muller Hinton Broth, 10^6 CFU per ml, 37° C., 18 to 20 hours, read-out: Antibacterial Activity (MIC). The essentials:
as §1

The subject of test [5] is Pseudomonas aeurginosa NCTC 10490. Briefly: MIC, two-fold dilution method, Pseudomonas aeurginosa NCTC 10490. The settings on record: NCTC10490, Muller Hinton Broth, 10^6 CFU per ml, 37° C., 18 to 20 hours, read-out: Antibacterial Activity (MIC). The essentials: as §1
Test [6] has as its system Esherichia coli ATCC 25922. Briefly: MIC, two-fold dilution method, Esherichia coli ATCC 25922. The settings on record: Muller Hinton Broth, 10^6 CFU per ml, 37° C., 18 to 20 hours, read-out: Antibacterial Activity (MIC). The essentials: as §1
In test [7] the test system is Klebsiella pneumoniae ATCC 10031. Kind of test: MIC, two-fold dilution method, Klebsiella pneumoniae ATCC 10031. The settings on record: ATCC10031, Muller Hinton Broth, 10^6 CFU per ml, 37° C., 18 to 20 hours, read-out: Antibacterial Activity (MIC). The method, boiled down:
as §1

Molecules are shown by their SMILES. Converted amounts (≈) assume the structure as drawn.

Take `C#CCO/N=C(\C(=O)NC1C(=O)N2C(C(=O)[O-])=C(CSc3cc[n+](CC=C)c4cc(N5CCN(CC)CC5)c(F)cc34)CSC12)c1csc(N)n1` (stereo not shown) [Compound I-51, 7-[(Z)-2-(2-aminothiazol-4-yl)-2-(propargyloxyimino)acetamido]-3-[1-allyl-6-fluoro-7-(1-ethylpiperazinyl)quinolinium-4-yl]thiomethyl-3-cephem-4-carboxylate]: the MIC in test [1] worked out at 0.78 µg/mL (≈ 1.04 µM); in test [2], 3.13 µg/mL (≈ 4.17 µM); in test [3], 1.56 µg/mL (≈ 2.08 µM); in test [4], 1.56 µg/mL (≈ 2.08 µM); in test [5], 1.56 µg/mL (≈ 2.08 µM); in test [6], 0.78 µg/mL (≈ 1.04 µM). Besides, in test [7], the MIC came to 0.78 µg/mL (≈ 1.04 µM).
